Measurements as given in patent publication US11780814B2, “Small molecules for treating cancer, inhibiting chemokine activity and/or inducing cell death” (AlonBio Ltd., priority 2019, dated 2023).
Each block holds one compound with its values, some of them ahead of it.

Legend:
[1] = test system: cancer cells; conditions: described in WO 2017/103931; cited from earlier work
[2] = test system: U937 cells; assay: Cell cycle analysis by 7-AAD staining; type: cell-based, human; conditions: 24 hours
Method: (§1) To evaluate the effects of BKT300-N1 on cell cycle distribution 7-Aminoactinomycin D (7-AAD) protocol was used. Cells were seeded in 24 wells of microplates at a density of 1×10^6 Cells/well and exposed to different concentrations of the tested compound, BKT300-N1 or BKT300-3-C5, for 24 or 48 hours at 37° C. in a CO2 incubator. After incubation time, cells were collected and washed with cold PBS. Cells were fixed for 20 minutes at 4° C. and processed according to the 7-AAD labeling protocol. The intensity of dye in staining cells was measured by flow cytometry. Cell cycle analysis calculated G0/G1, G2/M and sub-G0 phases from a 7-AAD area histogram.
Using the above protocol, U937 cells were treated with different concentrations of BKT300-N1 or BKT300-3-C5 (0.05, 0.1, 0.5 and 1 μM) for 24 hours and then cell cycle phases were analyzed by flow cytometry using 7-AAD.

[3] = test system: H69 cells; assay: Cell cycle analysis by 7-AAD staining; type: cell-based; conditions: different concentrations; 48 hours; FIG. 9
Method: as §1
Using the above protocol, H69 cells were treated with different concentrations of BKT300-N1 for 48 hours and then cell cycle phases were analyzed by flow cytometry using 7-AAD. Cells were gated according to the cells cycle phase: P1 for G0/G1 phase; P2-apoptotic cells in subG0 phase; and P3 for G2/M phase.

[4] = test system: HCC SNU449 cells; assay: Scratch assay (IncuCyte), cell invasion and migration; type: cell-based, human
Method: Scratch assay was performed to assess the effects of BKT300-N1 compared to that of BKT300-3-C5 on cell invasion and migration. This system measures scratch closure in real time and automatically calculates the relative wound density and wound width within the initially-vacant area at each time point. The relative wound density is the ratio of the occupied area to the total area of the initial scratched region.
Cells were plated on 96-well Image-lock plates (Essen Bioscience) and grown overnight to form a spatially uniform monolayer.
Scratches were made by using a 96-pin tool WoundMaker™ (Essen BioScience) to create uniform, reproducible scratches in all the wells of a 96-well plate. After creating the scratch, the medium was aspirated and the wells are washed twice with fresh medium to remove any cells from the scratched area. Following the washes, fresh medium containing different concentrations of the tested compound was added to the wells. Once the fresh medium is added, the plate was placed into the IncuCyte ZOOM™ apparatus and images of the collective cell spreading are recorded every 4 hours for a total duration of 60 hours.
Data processing and analysis were done using the IncuCyte S3 Live-cells Analysis System.
The scratch assay was performed using HCC SNU449 cells. The cells were scratched and incubated with 0.05, 0.1, 0.5, 1 and 10 μM of BKT300-N1 or BKT300-3-C5.

[5] = test system: human colorectal (CTG-0923) cancer; assay: Patient derived xenograft (PDX) tumor growth, colorectal; type: in vivo, mice; conditions: SC every 12 hours, 5 mg or 10 mg daily dose; compared to vehicle control; FIG. 13C
Method: (§2) In additional experiments, the in vivo efficacy of BKT300-N1, on the growth of subcutaneous, low passage Champions' TumourGraft® patient derived xenograft (PDX) models of human non-small-cell lung (CTG-0198), colorectal (CTG-0923) and ovarian (CTG-1086) cancer in female immunocompromised mice was tested.
(§3) Athymic Nude-Foxn1nu (Immunocompromised) female mice aged 6-8 weeks were implanted with 1-1.5 cm^3 harvested tumors unilaterally on the left flank. When the tumors reached an average volume of 200 cubic millimeters, control group was treated daily with a vehicle and treatment group was treated with either 2.5 mg per mice per injection (low dose) or 5 mg per mice per injection (hight dose) of BKT300-N1. The control group was subcutaneously (SC) injected with the vehicle (Cremophore EL and Ethanol 50%/50% volume/volume) diluted 1:6 with 0.9% Sodium Chloride.
(§4) For the low dose treatment group, a stock solution of 30 mg/mL BKN300-N1 was preapared in the vehicle and further diluted 1:6 with 0.9% Sodium Chloride, to a final concentration of 5 mg/mL. Animals received a 0.5 mL subcutaneously (SC) injection every 12 hours (for a 2.5 mg/injection=5 mg daily dose).
(§5) For the high dose treatment group, a stock solution of 30 mg/mL BKN300-N1 was preapared in the vehicle and further diluted 1:3 with 0.9% Sodium Chloride, to a final concentration of 10 mg/mL. […]

[6] = test system: human ovarian (CTG-1086) cancer; assay: Patient derived xenograft (PDX) tumor growth, ovarian; type: in vivo, mice; conditions: SC every 12 hours, 5 mg or 10 mg daily dose; compared to vehicle control; FIG. 13A
Method: as §2, §3, §4, §5

[7] = molecular target: SDF-1 (Homo sapiens, UniProt P48061); assay: Transwell migration assay of Jurkat cells towards SDF-1; type: cell-based; conditions: 0.5 μM, 1 μM, or 5 μM; 100 ng/ml SDF-1; 3 hours; FIG. 2
SDF-1, sequence (P48061 22-93, species assumed): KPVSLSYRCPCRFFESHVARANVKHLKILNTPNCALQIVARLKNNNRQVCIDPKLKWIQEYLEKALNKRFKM
Method: 600 μl of RPMI medium containing 1% fetal calf serum (FCS) was added to the lower chambers of Transwell® transmigration plates, supplemented with 100 ng/ml of SDF-1. BKT300-N1 was added to the lower chambers at the indicated concentration, except in control samples. The SDF-1 was incubated with BKT300-N1 for 30 minutes at room temperature before the initiation of the migration assay. Following 30 minutes of incubation 2×10^5 Jurkat cells were added to the upper chambers of the transmigration plates in a total volume of 100 μl. Cells which migrated within 3 hours to the bottom chamber of the Transwell® plates were counted using a FACScalibur™ flow cytometer.

[8] = test system: human non-small-cell lung (CTG-0198) cancer; assay: Patient derived xenograft (PDX) tumor growth, lung; type: in vivo, mice; conditions: SC every 12 hours, 5 mg or 10 mg daily dose; compared to vehicle control; FIG. 13B
Method: as §2, §3, §4, §5

[9] = test system: HEY-T30 cells; assay: Cell cycle analysis by 7-AAD, Taxol-resistant ovarian cancer cells; type: cell-based; conditions: 24 hours
Method: Cells (1×10^6 cells/ml) were cultured in 12-well plates in 10% FCS. After 24 hours the medium was replaced by 1% FCS and BKT300-N1 or Taxol (250-3.75 nM) were added.
24 hours incubation, cells were harvested and washed with PBS. The pellet was fixed by adding 200 μl Fix/Perm buffer and vortexed. The fixed cells were incubated for 20 minutes at 4° C. and then 1 ml of Perm/Wash buffer was added. Following centrifugation, supernatant was removed and cells were resuspended in 100 μl Perm/Wash plus 4 μl of 7-AAD and vortexed. The cells were then incubated in the dark for 20 minutes at 4° C. and thereafter 300 μl of PBS was added. Flow cytometry analysis was performed by collecting 20,000 events per sample. Analysis was done according to the distribution of cells in three major phases of the cycle: G0/G1 (blue), S (purple), G2/M (green), and apoptotic cells (red), as shown in FIGS. 15-18C.
All results are expressed as average ±SD. Statistical differences were determined by an analysis of two-tailed Student's t test. Values of p<0.05 were considered to be statistically significant.
Cells were incubated in different doses of Taxol (30, 15, 7.5, 3.75 nM) for 24 hours and were thereafter analyzed as described hereinabove.
Next, the effect of BKT300-N1 on the taxol resistance cells was tested. Both ovarian cancer cell lines were incubated with BKT300-N1 (250, 125, 62.5, 31.25, 15.6 nM). For comparison, the effect of the same amounts of Taxol was also tested.

[10] = test system: U937 cells; assay: Annexin-V/PI apoptosis assay by flow cytometry; type: cell-based, human; conditions: 25-1000 nM, 24 hours, compared to BKT300-3-C5
Method: Apoptosis was determined by flow cytometry analysis using Annexin-V kit. U937 cancer cells were incubated in RPMI cell medium with 1% fetal calf serum (FCS) at a concentration of 1×10^6 cells/well at a final volume of 1 ml in 24-well plate. The tested compound (BKT300-N1 or BKT300-3-C5) was added to the cells at the indicated concentrations. After 24 hours incubation, medium and cells were collected and centrifuged, then stained with Annexin-V and propidium iodide (PI) kit according to manufacturer's instructions. The numbers of viable cells (Annexin-V negative/PI negative); early apoptotic cells (Annexin-V positive/PI negative); late apoptosis cells (Annexin-V positive/PI positive) and necrotic cells (Annexin-V negative/PI positive) were then evaluated by flow cytometry (FACS).

[11] = test system: cleaved caspase-3 in U937 cells; assay: Western blot for cleaved caspase-3; type: cell-based, human; conditions: 0.1, 0.5 and 1 μM; 24 hours; FIGS. 7A-7B
Method: The role of caspase-3 (CASP3) in the BKT300-N1-induced apoptosis of AML cell lines U937 was tested. Cells were incubated with BKT300-N1 (0.1, 0.5 and 1 μM) for 24 hours, and were then tested for the presence of cleaved caspase 3 using mAb against human cleaved caspase 3 by Western blot assay.

[12] = test system: OVCAR8 cells; assay: Cell cycle analysis by 7-AAD, Taxol-sensitive ovarian cancer cells; type: cell-based; conditions: lowest taxol concentration of 3.75 nM; 24 hours; FIG. 16
Method: Cells (1×10^6 cells/ml) were cultured in 12-well plates in 10% FCS. […] 24 hours incubation, cells were harvested and washed with PBS. The pellet was fixed by adding 200 μl Fix/Perm buffer and vortexed. The fixed cells were incubated for 20 minutes at 4° C. and then 1 ml of Perm/Wash buffer was added. Following centrifugation, supernatant was removed and cells were resuspended in 100 μl Perm/Wash plus 4 μl of 7-AAD and vortexed. The cells were then incubated in the dark for 20 minutes at 4° C. and thereafter 300 μl of PBS was added. Flow cytometry analysis was performed by collecting 20,000 events per sample. […] All results are expressed as average ±SD. Statistical differences were determined by an analysis of two-tailed Student's t test. Values of p<0.05 were considered to be statistically significant. Cells were incubated in different doses of Taxol (30, 15, 7.5, 3.75 nM) for 24 hours and were thereafter analyzed as described hereinabove.

[13] = test system: CXCR4; conditions: animal studies, cited from earlier work
[14] = all tested concentrations (0.05, 0.1, 0.5 and 1 μM), FIG. 8A

Structure (SMILES): CCCCCc1cc2cc(O)cc(Oc3c(O)cc(O)cc3CCCCC)c2c(=O)o1 [BKT300]
cancer cell death [1]: inducing cancer cell death
cancer cell migration [1]: inhibiting cancer cell migration

Structure (SMILES): CCCCCC1C(=O)Nc2c(Oc3ccc(OC)cc3OC)cc(OC)cc2C1=O (stereo not shown) [BKT300-3-C5, reference compound]
cells death ([2]; concentration lower than 0.5 μM, FIG. 8B): did not induce cells death

migration of lymphocytic Jurkat cells towards SDF-1 [7]: significantly inhibited
Structure (SMILES): CCCCCc1c(O)c2cc(OC)cc(Oc3ccc(O)cc3OC)c2[nH]c1=O [BKT300-N1, 4-hydroxy-8-(4-hydroxy-2-methoxyphenoxy)-6-methoxy-3-pentylquinolin-2(1H)-one]
apoptotic cell death [3]: induce apoptotic cell death
cell cycle growth arrest [3]: arrest the growth at the G2M phase
wound width values ([4]; 0.05, 0.1, 0.5, 1 and 10 μM, over BKT300-3-C5, particularly at the lower concentrations, FIGS. 4A-4E): improved effect
relative wound area ([4]; at 24 hours, already at 0.1 μM, compared to BKT300-3-C5, FIG. 3): improved effect
tumor growth [5]: substantial reduction and even arrest in tumor growth
tumor growth [6]: substantial reduction and even arrest in tumor growth
tumor growth [8]: substantial reduction and even arrest in tumor growth
cell cycle arrest [2, 14]: resulted in cell cycle arrest
cells death [2, 14]: induced cells death
level of dead cells ([9]; significant at a concentration of 62.5 nM, FIG. 18A): increasing the level of dead cells
percentage of cells at G0/G1 phase ([9]; significant at concentration of 125 nM, FIG. 18B): reducing the percentage of cells at G0/G1 phase
level of cells in G2/M phase ([9]; significant at concentration of 125 nM, FIG. 18C): increasing the level of cells in G2/M phase
viability of U937 cells as the number of Annexin-V−/PI− viable cells ([10]; all tested concentrations, FIG. 6A): improved effect
reduction in the percentage of viable cells via apoptosis ([10]; FIGS. 6A-6B): substantially higher effect
presence of cleaved caspase-3 (mechanism of induced apoptosis) [11]: via caspase-3 activation

Structure (SMILES): CC(=O)O[C@H]1C(=O)[C@@]2(C)[C@H]([C@H](OC(=O)c3ccccc3)[C@]3(O)C[C@H](OC(=O)[C@H](O)[C@@H](NC(=O)c4ccccc4)c4ccccc4)C(C)=C1C3(C)C)[C@]1(OC(C)=O)CO[C@@H]1C[C@@H]2O [Taxol, reference compound]
effect on cell cycle [12]: effect on cell cycle was already evident
effect on cell cycle ([9]; Taxol 30, 15, 7.5, 3.75 nM, FIG. 15): no effect on cell cycle
effects on dead cells, G0/G1 phase and G2/M phase ([9]; any of the tested concentrations (250, 125, 62.5, 31.25, 15.6 nM), FIGS. 18A-18C): no significant effects

Structure (SMILES): c1cc(CN2CCCNCCNCCCNCC2)ccc1CN1CCCNCCNCCCNCC1 [plerixafor]
recurrence of glioblastoma associated with vasculogenesis ([13]; Kioi et al. 2010): reduce recurrence of glioblastoma
metastasis ([13]; Smith et al. 2004): reduce metastasis
opioid-induced hyperalgesia ([13]; Wilson et al. 2011): counteract opioid-induced hyperalgesia
